Assay results reported in ChEMBL document CHEMBL4507283, “Data for DCP probe BI-1935” (2021).

Experiments:
[1] = molecular target: Serine/threonine-protein kinase OSR1 (Homo sapiens) (UniProt O95747); conditions: Compound concentration 1000.0 nM
[2] = test system: Mast/stem cell growth factor receptor Kit (Homo sapiens), P10721 [D816H]; conditions: Compound concentration 1000.0 nM
[3] = molecular target: Glycogen synthase kinase-3 beta (Homo sapiens) (UniProt P49841); conditions: Compound concentration 1000.0 nM
[4] = molecular target: Tyrosine-protein kinase Yes (Homo sapiens) (UniProt P07947); conditions: Compound concentration 1000.0 nM
[5] = molecular target: Serine/threonine-protein kinase 24 (Homo sapiens) (UniProt Q9Y6E0); conditions: Compound concentration 1000.0 nM
[6] = molecular target: Serine/threonine-protein kinase 36 (Homo sapiens) (UniProt Q9NRP7); conditions: Compound concentration 1000.0 nM
[7] = molecular target: Glutamate receptor ionotropic, NMDA 1 (Rattus norvegicus) (UniProt P35439); test: GLUTAMAT/R Eurofins-Panlabs selectivity data (BI); conditions: Compound concentration 10.0 uM
[8] = molecular target: Casein kinase I isoform gamma-1 (Homo sapiens) (UniProt Q9HCP0); conditions: Compound concentration 1000.0 nM
[9] = molecular target: Serine/threonine-protein kinase Sgk1 (Homo sapiens) (UniProt O00141); conditions: Compound concentration 1000.0 nM
[10] = molecular target: 3-hydroxy-3-methylglutaryl-coenzyme A reductase (Rattus norvegicus) (UniProt P51639); test: HMGCOARED Eurofins-Panlabs selectivity data (BI); conditions: Compound concentration 10.0 uM
[11] = molecular target: D(2) dopamine receptor (Homo sapiens) (UniProt P14416); test: D2L/H Eurofins-Panlabs selectivity data (BI); conditions: Compound concentration 10.0 uM
[12] = molecular target: Mitogen-activated protein kinase kinase kinase kinase 5 (Homo sapiens) (UniProt Q9Y4K4); conditions: Compound concentration 1000.0 nM
[13] = molecular target: Atypical kinase COQ8A, mitochondrial (Homo sapiens) (UniProt Q8NI60); conditions: Compound concentration 1000.0 nM
Sequence of Atypical kinase COQ8A, mitochondrial (Homo sapiens) (Q8NI60 163-647 limits assumed): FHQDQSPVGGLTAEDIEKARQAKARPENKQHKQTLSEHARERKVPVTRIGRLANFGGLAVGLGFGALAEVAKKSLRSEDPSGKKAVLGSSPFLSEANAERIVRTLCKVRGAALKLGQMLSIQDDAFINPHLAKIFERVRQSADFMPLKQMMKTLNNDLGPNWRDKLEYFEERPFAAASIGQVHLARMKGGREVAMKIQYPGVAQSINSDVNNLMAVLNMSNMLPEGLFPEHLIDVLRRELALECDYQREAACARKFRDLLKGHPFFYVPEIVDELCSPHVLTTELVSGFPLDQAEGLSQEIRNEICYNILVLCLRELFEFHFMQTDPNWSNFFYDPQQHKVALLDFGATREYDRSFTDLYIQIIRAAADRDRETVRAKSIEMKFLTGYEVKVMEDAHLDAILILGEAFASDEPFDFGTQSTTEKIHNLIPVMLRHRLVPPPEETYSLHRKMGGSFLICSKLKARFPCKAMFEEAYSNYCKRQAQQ

[14] = molecular target: Ribosomal protein S6 kinase alpha-6 (Homo sapiens) (UniProt Q9UK32); conditions: Compound concentration 1000.0 nM
[15] = molecular target: Tyrosine-protein kinase Lyn (Homo sapiens) (UniProt P07948); conditions: Compound concentration 1000.0 nM
[16] = test system: Receptor-type tyrosine-protein kinase FLT3 (Homo sapiens), P36888 [UNDEFINED MUTATION]; conditions: Compound concentration 1000.0 nM
[17] = molecular target: Cyclin-dependent kinase 11A (Homo sapiens) (UniProt Q9UQ88); conditions: Compound concentration 1000.0 nM
Sequence of Cyclin-dependent kinase 11A (Homo sapiens) (Q9UQ88 whole entry): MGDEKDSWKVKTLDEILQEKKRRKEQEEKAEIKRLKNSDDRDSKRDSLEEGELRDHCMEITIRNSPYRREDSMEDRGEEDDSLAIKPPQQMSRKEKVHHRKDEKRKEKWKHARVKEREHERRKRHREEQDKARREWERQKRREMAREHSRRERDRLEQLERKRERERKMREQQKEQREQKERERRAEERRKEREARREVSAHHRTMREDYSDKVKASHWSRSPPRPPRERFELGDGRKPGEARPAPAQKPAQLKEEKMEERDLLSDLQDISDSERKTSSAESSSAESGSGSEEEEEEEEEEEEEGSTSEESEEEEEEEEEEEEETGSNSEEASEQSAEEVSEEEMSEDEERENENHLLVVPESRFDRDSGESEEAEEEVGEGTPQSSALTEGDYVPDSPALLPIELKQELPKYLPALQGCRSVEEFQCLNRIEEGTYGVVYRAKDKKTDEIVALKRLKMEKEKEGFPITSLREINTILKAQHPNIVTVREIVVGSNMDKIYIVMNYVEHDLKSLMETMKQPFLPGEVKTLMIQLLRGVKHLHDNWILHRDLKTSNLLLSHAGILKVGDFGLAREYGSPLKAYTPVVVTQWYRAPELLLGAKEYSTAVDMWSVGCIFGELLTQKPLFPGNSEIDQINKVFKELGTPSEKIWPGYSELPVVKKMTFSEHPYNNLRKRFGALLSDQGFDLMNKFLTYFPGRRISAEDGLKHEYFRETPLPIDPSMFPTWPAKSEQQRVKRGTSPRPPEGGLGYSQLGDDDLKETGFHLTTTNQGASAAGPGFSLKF

[18] = molecular target: Serine/threonine-protein kinase TAO2 (Homo sapiens) (UniProt Q9UL54); conditions: Compound concentration 1000.0 nM
[19] = molecular target: Casein kinase I isoform gamma-2 (Homo sapiens) (UniProt P78368); conditions: Compound concentration 1000.0 nM
[20] = molecular target: Mitogen-activated protein kinase kinase kinase 10 (Homo sapiens) (UniProt Q02779); conditions: Compound concentration 1000.0 nM
Sequence of Mitogen-activated protein kinase kinase kinase 10 (Homo sapiens) (Q02779 whole entry, looked up): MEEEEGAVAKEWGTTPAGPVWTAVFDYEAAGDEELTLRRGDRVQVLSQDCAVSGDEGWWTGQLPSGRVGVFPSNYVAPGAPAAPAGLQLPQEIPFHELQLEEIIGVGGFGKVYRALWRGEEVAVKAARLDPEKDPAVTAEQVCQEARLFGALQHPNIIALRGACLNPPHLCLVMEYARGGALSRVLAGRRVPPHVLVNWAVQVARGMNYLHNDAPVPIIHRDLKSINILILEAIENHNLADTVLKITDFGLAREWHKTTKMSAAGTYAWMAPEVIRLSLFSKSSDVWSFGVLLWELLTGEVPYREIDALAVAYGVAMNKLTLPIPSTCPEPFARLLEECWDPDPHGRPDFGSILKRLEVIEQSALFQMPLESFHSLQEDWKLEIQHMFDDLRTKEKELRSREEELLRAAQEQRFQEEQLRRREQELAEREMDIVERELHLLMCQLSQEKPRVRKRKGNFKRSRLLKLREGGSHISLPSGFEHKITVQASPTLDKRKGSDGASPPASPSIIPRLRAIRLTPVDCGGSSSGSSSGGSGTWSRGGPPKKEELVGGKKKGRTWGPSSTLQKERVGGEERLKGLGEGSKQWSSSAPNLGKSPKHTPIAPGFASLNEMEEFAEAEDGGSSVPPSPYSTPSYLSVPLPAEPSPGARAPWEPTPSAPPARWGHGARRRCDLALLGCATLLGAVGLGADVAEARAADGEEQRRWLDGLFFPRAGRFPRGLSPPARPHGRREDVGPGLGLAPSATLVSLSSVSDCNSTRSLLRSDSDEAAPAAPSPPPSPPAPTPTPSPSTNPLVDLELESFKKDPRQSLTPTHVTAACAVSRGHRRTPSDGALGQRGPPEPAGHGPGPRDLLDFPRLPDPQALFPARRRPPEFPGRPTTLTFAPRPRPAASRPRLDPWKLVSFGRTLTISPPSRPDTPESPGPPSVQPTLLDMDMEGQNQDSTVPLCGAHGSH

[21] = molecular target: Serine/threonine-protein kinase ULK3 (Homo sapiens) (UniProt Q6PHR2); conditions: Compound concentration 1000.0 nM
[22] = molecular target: Cyclin-dependent kinase 2 (Homo sapiens) (UniProt P24941); conditions: Compound concentration 1000.0 nM
[23] = molecular target: Alpha-1A adrenergic receptor (Homo sapiens) (UniProt P35348); conditions: Compound concentration 10.0 uM
[24] = molecular target: Opioid receptor (Rattus norvegicus) (UniProt P33533+P34975+P33535); test: OPIAT/NS Eurofins-Panlabs selectivity data (BI); format: protein assay; conditions: Compound concentration 10.0 uM
[25] = molecular target: Homeodomain-interacting protein kinase 1 (Homo sapiens) (UniProt Q86Z02); conditions: Compound concentration 1000.0 nM
Sequence of Homeodomain-interacting protein kinase 1 (Homo sapiens) (Q86Z02 whole entry, looked up): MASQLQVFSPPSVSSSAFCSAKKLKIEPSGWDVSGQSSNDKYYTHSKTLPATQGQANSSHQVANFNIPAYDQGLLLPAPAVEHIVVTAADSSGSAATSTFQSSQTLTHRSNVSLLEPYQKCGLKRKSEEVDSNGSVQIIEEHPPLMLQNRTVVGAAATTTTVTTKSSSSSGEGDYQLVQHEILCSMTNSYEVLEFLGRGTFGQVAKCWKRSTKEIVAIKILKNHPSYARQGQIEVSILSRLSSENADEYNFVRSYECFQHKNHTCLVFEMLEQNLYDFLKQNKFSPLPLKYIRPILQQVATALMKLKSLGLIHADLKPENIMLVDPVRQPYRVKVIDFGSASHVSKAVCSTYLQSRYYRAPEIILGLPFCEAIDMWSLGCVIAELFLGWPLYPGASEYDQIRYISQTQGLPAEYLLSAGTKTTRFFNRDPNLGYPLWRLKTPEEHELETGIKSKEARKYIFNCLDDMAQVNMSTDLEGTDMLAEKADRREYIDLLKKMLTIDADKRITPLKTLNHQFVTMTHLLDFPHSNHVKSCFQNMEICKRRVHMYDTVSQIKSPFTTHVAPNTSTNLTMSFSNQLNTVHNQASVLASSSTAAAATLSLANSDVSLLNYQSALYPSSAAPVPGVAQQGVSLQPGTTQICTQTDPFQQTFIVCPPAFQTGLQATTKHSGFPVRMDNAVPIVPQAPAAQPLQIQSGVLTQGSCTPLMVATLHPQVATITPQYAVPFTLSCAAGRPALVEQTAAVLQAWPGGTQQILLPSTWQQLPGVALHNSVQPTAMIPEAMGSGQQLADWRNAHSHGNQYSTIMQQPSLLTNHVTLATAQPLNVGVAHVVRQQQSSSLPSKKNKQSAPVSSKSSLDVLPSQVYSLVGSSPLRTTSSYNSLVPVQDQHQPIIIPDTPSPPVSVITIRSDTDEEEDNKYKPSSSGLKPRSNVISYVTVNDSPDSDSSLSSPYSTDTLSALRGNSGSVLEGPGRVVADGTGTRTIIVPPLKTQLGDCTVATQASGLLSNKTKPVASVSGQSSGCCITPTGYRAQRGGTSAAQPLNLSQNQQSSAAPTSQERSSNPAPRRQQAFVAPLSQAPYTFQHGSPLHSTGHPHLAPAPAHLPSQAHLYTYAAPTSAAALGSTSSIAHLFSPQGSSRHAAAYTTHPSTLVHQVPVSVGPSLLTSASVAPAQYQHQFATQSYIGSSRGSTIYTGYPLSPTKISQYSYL

[26] = test system: Hepatocyte growth factor receptor (Homo sapiens), P08581 [Y1235D]; conditions: Compound concentration 1000.0 nM
[27] = molecular target: Wee1-like protein kinase (Homo sapiens) (UniProt P30291); conditions: Compound concentration 1000.0 nM
[28] = molecular target: Cyclin-dependent kinase 14 (Homo sapiens) (UniProt O94921); conditions: Compound concentration 1000.0 nM
Sequence of Cyclin-dependent kinase 14 (Homo sapiens) (O94921 whole entry, canonical isoform): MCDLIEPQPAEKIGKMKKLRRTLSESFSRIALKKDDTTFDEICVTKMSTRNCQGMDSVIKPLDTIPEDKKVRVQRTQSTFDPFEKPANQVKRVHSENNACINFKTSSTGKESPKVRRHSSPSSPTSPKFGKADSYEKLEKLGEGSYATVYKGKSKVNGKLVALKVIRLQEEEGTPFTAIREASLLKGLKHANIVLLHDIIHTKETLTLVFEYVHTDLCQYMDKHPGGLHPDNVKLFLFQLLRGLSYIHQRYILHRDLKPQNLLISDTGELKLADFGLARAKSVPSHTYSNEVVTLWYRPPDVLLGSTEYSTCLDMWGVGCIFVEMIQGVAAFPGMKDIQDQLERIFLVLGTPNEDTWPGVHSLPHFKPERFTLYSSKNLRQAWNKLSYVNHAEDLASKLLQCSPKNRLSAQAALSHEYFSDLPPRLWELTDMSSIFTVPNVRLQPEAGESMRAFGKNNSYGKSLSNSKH

[29] = test system: Phosphatidylinositol 4,5-bisphosphate 3-kinase catalytic subunit alpha isoform (Homo sapiens), P42336 [Q546K]; conditions: Compound concentration 1000.0 nM
[30] = test system: Tyrosine-protein kinase ABL1 (Homo sapiens), P00519 [F317I]; conditions: Compound concentration 1000.0 nM
[31] = test system: Epidermal growth factor receptor (Homo sapiens), P00533 [L861Q]; conditions: Compound concentration 1000.0 nM
[32] = molecular target: Acetylcholinesterase (Homo sapiens) (UniProt P22303); test: ACHOLINEST Eurofins-Panlabs selectivity data (BI); conditions: Compound concentration 10.0 uM
[33] = molecular target: Serine/threonine-protein kinase tousled-like 1 (Homo sapiens) (UniProt Q9UKI8); conditions: Compound concentration 1000.0 nM
[34] = molecular target: Serine/threonine-protein kinase 32B (Homo sapiens) (UniProt Q9NY57); conditions: Compound concentration 1000.0 nM
[35] = test system: Tyrosine-protein kinase ABL1 (Homo sapiens), P00519 [E255K]; conditions: Compound concentration 1000.0 nM
[36] = molecular target: Serine/threonine-protein kinase WNK1 (Homo sapiens) (UniProt Q9H4A3); conditions: Compound concentration 1000.0 nM
[37] = molecular target: 5-hydroxytryptamine receptor 1E (Homo sapiens) (UniProt P28566); conditions: Compound concentration 10.0 uM
[38] = molecular target: Serine/threonine-protein kinase PLK2 (Homo sapiens) (UniProt Q9NYY3); conditions: Compound concentration 1000.0 nM
[39] = molecular target: Serine/threonine-protein kinase WNK3 (Homo sapiens) (UniProt Q9BYP7); conditions: Compound concentration 1000.0 nM
[40] = molecular target: Cyclin-dependent kinase 4 (Homo sapiens) (UniProt P11802); conditions: Compound concentration 1000.0 nM
[41] = molecular target: Serine/threonine-protein kinase Nek11 (Homo sapiens) (UniProt Q8NG66); conditions: Compound concentration 1000.0 nM
[42] = molecular target: Casein kinase II subunit alpha (Homo sapiens) (UniProt P68400); conditions: Compound concentration 1000.0 nM
[43] = molecular target: Rhodopsin kinase GRK7 (Homo sapiens) (UniProt Q8WTQ7); conditions: Compound concentration 1000.0 nM
[44] = molecular target: Ribosomal protein S6 kinase alpha-2 (Homo sapiens) (UniProt Q15349); conditions: Compound concentration 1000.0 nM
[45] = test system: Epidermal growth factor receptor (Homo sapiens), P00533 [L858R,T790M]; conditions: Compound concentration 1000.0 nM

Sequence of Mast/stem cell growth factor receptor Kit (Homo sapiens), P10721 [D816H] (P10721 whole entry D816H): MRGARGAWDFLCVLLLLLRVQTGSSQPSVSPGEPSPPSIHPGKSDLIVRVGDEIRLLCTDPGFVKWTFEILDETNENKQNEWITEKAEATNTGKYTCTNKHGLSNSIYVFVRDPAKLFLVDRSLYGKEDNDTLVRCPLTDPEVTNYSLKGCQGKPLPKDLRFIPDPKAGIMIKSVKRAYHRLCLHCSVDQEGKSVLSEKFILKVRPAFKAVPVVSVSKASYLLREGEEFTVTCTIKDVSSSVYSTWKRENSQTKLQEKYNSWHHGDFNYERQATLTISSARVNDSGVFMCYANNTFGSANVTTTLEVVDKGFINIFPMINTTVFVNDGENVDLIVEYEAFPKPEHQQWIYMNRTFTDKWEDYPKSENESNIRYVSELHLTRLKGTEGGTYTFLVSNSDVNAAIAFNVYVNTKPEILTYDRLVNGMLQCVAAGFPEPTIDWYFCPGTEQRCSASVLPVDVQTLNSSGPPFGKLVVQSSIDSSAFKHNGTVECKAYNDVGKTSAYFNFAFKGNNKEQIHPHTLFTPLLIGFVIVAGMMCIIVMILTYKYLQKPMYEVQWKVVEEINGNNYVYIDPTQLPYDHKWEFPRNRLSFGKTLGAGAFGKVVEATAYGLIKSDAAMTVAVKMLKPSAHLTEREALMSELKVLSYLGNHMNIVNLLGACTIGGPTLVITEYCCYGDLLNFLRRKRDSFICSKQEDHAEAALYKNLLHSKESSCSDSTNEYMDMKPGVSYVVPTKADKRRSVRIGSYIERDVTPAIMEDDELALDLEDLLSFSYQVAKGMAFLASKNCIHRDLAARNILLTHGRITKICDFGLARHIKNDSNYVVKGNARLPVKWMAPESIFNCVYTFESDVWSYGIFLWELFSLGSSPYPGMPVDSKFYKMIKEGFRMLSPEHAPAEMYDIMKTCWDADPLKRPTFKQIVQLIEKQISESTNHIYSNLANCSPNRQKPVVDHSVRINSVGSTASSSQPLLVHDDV

## CCOCCn1cc(C(=O)Nc2ccc(-n3nc(-c4cccnc4)cc3C(F)(F)F)cn2)ccc1=O [BI 1935]
[1]
  residual activity: 92%
[2]
  residual activity: 79%
[3]
  residual activity: 86%
[4]
  residual activity: 85%
[5]
  residual activity: 100%
[6]
  residual activity: 71%
[7]
  residual activity: 103%
[8]
  residual activity: 100%
[9]
  residual activity: 83%
[10]
  residual activity: 87%
[11]
  residual activity: 97%
[12]
  residual activity: 95%
[13]
  residual activity: 90%
[14]
  residual activity: 100%
[15]
  residual activity: 81%
[16]
  residual activity: 56%
[17]
  residual activity: 100%
[18]
  residual activity: 75%
[19]
  residual activity: 100%
[20]
  residual activity: 100%
[21]
  residual activity: 61%
[22]
  residual activity: 100%
[23]
  inhibition: 29.3%
[24]
  residual activity: 99%
[25]
  residual activity: 90%
[26]
  residual activity: 100%
[27]
  residual activity: 100%
[28]
  residual activity: 100%
[29]
  residual activity: 95%
[30]
  residual activity: 74%
[31]
  residual activity: 100%
[32]
  residual activity: 41%
[33]
  residual activity: 100%
[34]
  residual activity: 100%
[35]
  residual activity: 69%
[36]
  residual activity: 82%
[37]
  inhibition: -4.17%
[38]
  residual activity: 88%
[39]
  residual activity: 76%
[40]
  residual activity: 93%
[41]
  residual activity: 96%
[42]
  residual activity: 70%
[43]
  residual activity: 88%
[44]
  residual activity: 84%
[45]
  residual activity: 96%
